# Data from patent US20260265244A1, “HETEROCYCLIC COMPOUNDS AS STING ANTAGONISTS” (Boehringer Ingelheim International GmbH, priority 2022, published 2026).
# Tests used:
# human STING WT (R232) = molecular target: T1, human STING WT (R232) (Homo sapiens, UniProt Q86WV6, H232R); experiment: Human STING HTRF binding assay (competitive, Cisbio 64BDSTGPEG)
# T1 construct: purchased Cisbio 64BDSTGPEG
# Description: Binders to human STING WT (R232) were identified using a competitive HTRF assay format (Cisbio 64BDSTGPEG), which uses d2-labeled STING ligand, a 6His (SEQ ID NO: 2) tagged human STING protein, and an anti 6His (SEQ ID NO: 2) Cryptate-labeled antibody. Compounds compete with the STING ligand-d2 and thereby prevents FRET from occurring, which can be measured by an EnVision™ reader (PerkinElmer).
# Assay method: Compounds were delivered as 10 mM DMSO solution, serially diluted by an Agilent Bravo Workstation and transferred to the 384 well assay plate (Perkin Elmer #6005359) using a Cybiwell dispenser. Typically, 8 concentrations were used with the highest concentration at 10 μM or 1 μM in the final assay volume followed by ~1:5 dilution steps. DMSO concentration was set to 1% in the final assay volume. The 384 well assay plate contained 20 test compounds and DMSO in column 23 and 24. A cGAMP standard dilution row was prepared according to the manufacturer and transferred to each assay plate. After transfer of compound solution or dilution buffer for negative (high) and positive (low) controls, 5 μl of the human STING protein (cyclic binding domain (residues 138-379) of the WT R232 human version, fused to a 6 His tag (SEQ ID NO: 2) at the Nter part; 1:50 dilution in detection buffer) were dispensed to all wells except of the positive control, which received detection buffer only. Plates were the centrifuged for 20 sec at 1000 rpm. After that, 10 μl of Anti-6His-Cryptate antibody/Sting ligand-d2 mix was added to all wells using a Multidrop combi dispenser, followed by another sec/1000 rpm centrifugation step. After an incubation of the plates for 180 min at room temperature, […] at […] (HTRF ratio) was measured using an Envison Reader (PerkinElmer).
# Data evaluation and calculation: For data evaluation and calculation, HTRF ratios were calibrated using the cGAMP standard curve. After that, the measurement of the low control was set as 0% control and the measurement of the high control was set as 100% control. The IC50 values were calculated using the standard 4 parameter logistic regression formula. Calculation: [y=(a−d)/(1+(x/c)^b)+d], a=low value, d=high value; x=conc M; c=IC50 M; b=slope;
# [1] = molecular target: T2, cGAMP binding domain of wild-type (GRR) human STING, residues 155-341 (Homo sapiens, UniProt Q86WV6, H232R); experiment: Increase of stability of STING protein against thermal denaturation, Differential Scanning Fluorimetry (DSF)
# T2 construct: His-TEV-hSTING (WT); TEV protease cleavage site (N); made in house; host or cells: E. coli BL21 DE3
# Outline: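 3 µM His-tagged protein with 100 uM compound, 5×SYPRO Orange, 2% DMSO in 20 mM Tris, 150 mM NaCl, pH7.5; 15–95 °C ramp in 0.5 °C steps (15 s/cycle). Tm from Boltzmann fit of the dye melt curve, duplicates averaged, repeated if SD>1.5 °C; ΔTm = Tm with compound minus Tm of protein alone.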
# T2 sequence (Q86WV6 with tags, fused parts or gaps H232R): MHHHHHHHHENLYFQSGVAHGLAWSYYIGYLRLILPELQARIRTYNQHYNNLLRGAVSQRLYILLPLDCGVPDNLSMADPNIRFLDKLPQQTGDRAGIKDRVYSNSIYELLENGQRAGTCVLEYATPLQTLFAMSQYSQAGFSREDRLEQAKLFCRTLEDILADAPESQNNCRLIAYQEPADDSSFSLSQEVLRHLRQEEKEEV
# T1 sequence (Q86WV6 138-379 H232R): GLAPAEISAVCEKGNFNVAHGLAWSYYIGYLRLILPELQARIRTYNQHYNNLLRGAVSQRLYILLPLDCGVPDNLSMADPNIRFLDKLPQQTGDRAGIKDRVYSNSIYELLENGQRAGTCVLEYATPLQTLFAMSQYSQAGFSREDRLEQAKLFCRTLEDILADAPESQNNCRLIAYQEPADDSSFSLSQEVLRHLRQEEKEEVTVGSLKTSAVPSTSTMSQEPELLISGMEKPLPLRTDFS
IC50 (human STING WT (R232)),DSF [1],SMILES
6.1 nM,31 K,"CC(C)n1cc2cc(-c3nc(-c4cccc5nn(C[C@H](O)c6ccccc6)cc45)c(C4CC4)n3C)c(C3CC3)nc2n1 [Example 33, (1R)-2-(4-{5-cyclopropyl-2-[6-cyclopropyl-2-(propan-2-yl)-2H-pyrazolo[3,4-b]pyridin-5-yl]-1-methyl-1H-imidazol-4-yl}-2H-indazol-2-yl)-1-phenylethan-1-ol]"
7.1 nM,29 K,"Cn1cc2cc(-c3nc(-c4cccc5nn(C[C@H](O)c6ccccc6)cc45)c(C4CC4)n3C)c(OC(F)F)cc2n1 [Example 34, (1R)-2-(4-{5-cyclopropyl-2-[6-(difluoromethoxy)-2-methyl-2H-indazol-5-yl]-1-methyl-1H-imidazol-4-yl}-2H-indazol-2-yl)-1-phenylethan-1-ol]"
6.4 nM,30 K,"Cn1cc2cc(-c3nc(-c4cccc5nn(C[C@H](O)c6ccc(OCCC(C)(C)O)cc6)cc45)c(C4CC4)n3C)c(C3CC3)nc2n1 [Example 41, 4-{4-[(1R)-2-[4-(5-cyclopropyl-2-{6-cyclopropyl-2-methyl-2H-pyrazolo[3,4-b]pyridin-5-yl}-1-methyl-1H-imidazol-4-yl)-2H-indazol-2-yl]-1-hydroxyethyl]phenoxy}-2-methylbutan-2-ol]"

# The next lines start with the molecule.
SMILES,IC50 (human STING WT (R232)),DSF [1]
"Cc1c(C2CC2)c(-c2c(F)ccc3nn(C[C@H](O)c4ccccc4)cc23)nn1-c1cc2cn(C)nc2nc1C1CC1 [Example 35, (1R)-2-[4-(4-cyclopropyl-1-{6-cyclopropyl-2-methyl-2H-pyrazolo[3,4-b]pyridin-5-yl}-5-methyl-1H-pyrazol-3-yl)-5-fluoro-2H-indazol-2-yl]-1-phenylethan-1-ol]",19.3 nM,29 K
"CNC(=O)CO[C@@H](Cn1cc2c(-c3nn(-c4cc5cn(C)nc5nc4C)c(C)c3C(C)C)cccc2n1)c1ccccc1 [Example 36, 2-[(1R)-2-[4-(1-{2,6-dimethyl-2H-pyrazolo[3,4-b]pyridin-5-yl)-5-methyl-4-(propan-2-yl)-1H-pyrazol-3-yl)-2H-indazol-2-yl]-1-phenylethoxy]-N-methylacetamide]",14.6 nM,24 K
"Cc1nc2nn(CCO)cc2cc1-n1nc(-c2cccc3nn(C[C@H](O)c4ccccc4)cc23)c(C(C)C)c1C [Example 37, (1R)-2-(4-{1-[2-(2-hydroxyethyl)-6-methyl-2H-pyrazolo[3,4-b]pyridin-5-yl]-5-methyl-4-(propan-2-yl)-1H-pyrazol-3-yl}-2H-indazol-2-yl)-1-phenylethan-1-ol]",5.5 nM,27 K
"Cc1nc2nn(CCN(C)C)cc2cc1-n1nc(-c2cccc3nn(C[C@H](O)c4ccccc4)cc23)c(C(C)C)c1C [Example 39, (1R)-2-[4-(1-{2-[2-(dimethylamino)ethyl]-6-methyl-2H-pyrazolo[3,4-b]pyridin-5-yl}-5-methyl-4-(propan-2-yl)-1H-pyrazol-3-yl)-2H-indazol-2-yl]-1-phenylethan-1-ol]",15.4 nM,25 K
"Cc1nc2nn(CCCN3CCC(F)(F)C3)cc2cc1-n1nc(-c2cccc3nn(C[C@H](O)c4ccccc4)cc23)c(C(C)C)c1C [Example 40, (1R)-2-[4-(1-{2-[3-(3,3-difluoropyrrolidin-1-yl)propyl]-6-methyl-2H-pyrazolo[3,4-b]pyridin-5-yl}-5-methyl-4-(propan-2-yl)-1H-pyrazol-3-yl)-2H-indazol-2-yl]-1-phenylethan-1-ol]",28.4 nM,27 K
"CNCc1nc2nn(C)cc2cc1-n1nc(-c2cccc3nn(C[C@H](O)c4ccccc4)cc23)c(C(C)C)c1C [Example 42, (1R)-2-[4-(5-methyl-1-{2-methyl-6-[(methylamino)methyl]-2H-pyrazolo[3,4-b]pyridin-5-yl}-4-(propan-2-yl)-1H-pyrazol-3-yl)-2H-indazol-2-yl]-1-phenylethan-1-ol]",16.7 nM,26 K
